Experimental data taken from US12465658B2, “Eye drop composition” (Aratana Therapeutics, Inc., priority 2012, dated 2025).
Like-named read-outs stand apart in the source and are kept apart here.

Key:
[1] = Solubility of A-5021 by slurry experiments (24 h equilibration, filtration, HPLC of filtrate); format: physicochemical; conditions: for solubility at 24 h: thermodynamic from solid
Procedure: In order to determine the solubility of A-5021 (i.e. 2-amino-9-[[(1S,2R)-1,2-bis(hydroxymethyl)cyclopropyl]methyl]-1,9-dihydro-6H-Purin-6-one), a first series of 33 slurry experiments was performed. Within these experiments a set of 33 different systems (varying in i.e. buffers, co-solvents, solubilizing agents) were considered. The following six buffers were used: HCl buffer (pH 2), phosphate buffer (pH 6.8 and 7.4), tris(hydroxymethyl)aminoethane buffer (pH 9), sodium carbonate/bicarbonate (pH 10.8), and potassium dihydrogen phosphate (pH 12). As co-solvents dimethyl sulfoxide (DMSO), dimethyl acetamide (DMA), N-methyl pyrrolidone (NMP), ethanol (EtOH), and propylene glycol were used with varying concentrations. The solubilizing agents used were propylene glycol, glycerin, solutol HS 15, polysorbate 80, beta-cyclodextrin, hydroxypropyl beta-cyclodextrin (Kleptose® HPB), cremophor EL, cremophor RH 60, polyethylene glycol (PEG) 300, PEG 400, and sulfobutylether beta-cyclodextrin (e.g. Captisol®). The solubility was determined by filtration of the slurries after 24 h equilibration time. The A-5021 concentration in the filtrates was analyzed by High-Performance Liquid Chromatography (HPLC), from which the corresponding solubility was calculated.
Two different buffer systems, co-solvents, and solubilizing agents were considered with focus on systems that gave the best results as reported above. The solubility was again determined by filtration of the slurries after 24 h equilibration time. The A-5021 concentration in the filtrates was analyzed by HPLC, from which the corresponding solubility was calculated. Overall, no greater solubility values than the already reported values were found. […] A close to neutral pH buffered system (80% v/v propylene glycol and 20% v/v phosphate buffer at pH 7.4), which is of interest to develop ophthalmic solutions (allowing topical application of A-5021 to herpes virus-infected eyes) allows to solubilize A-5021 at 8.18 mg/mL. When 2-hydroxypropyl beta-cyclodextrin (HPBC) is used as a solubilizing agent instead of propylene glycol, the solubility of A-5021 decreases compared to the propylene glycol buffered systems.

[2] = Vehicle candidates tested to solubilize A-5021 at 5 mg/mL at neutral pH; format: physicochemical; conditions: aqueous with cosolvent or surfactant or cyclodextrin, pH 6.98-7.1 1, read-out: concentration of A-5021 solubilized
Procedure: Based on the above indicated results and in order to be able to formulate A-5021 at pharmacologically active concentrations (preferably about […]), it was considered to investigate of additional solubilizing agents and/or keeping a high amount of propylene glycol at neutral pH. In total 28 vehicle candidates were tested to solubilize A-5021 at 5 mg/mL at neutral pH: propylene glycol at concentration ranging from 20% to 80% w/v, glycofurol at concentration ranging from 5% to 50% w/v, glycerol at concentration ranging from 15% to 50% w/v, 15% w/v glycerol+15 w/v glycofurol, 25% w/v propylene glycol+25% w/v glycofurol, propylene glycol (range: 15%-60% w/v)+glycerol (range: 5%-15% w/v), 25% w/v Kleptose® HPB+25% propylene glycol, cremophor RH 40, cremophor EL, solutol HS 15, 40-50% Kleptose® HPB, miglyol 812N, liquid paraffin, polyvinylpyrrolidone K12.
Only four vehicles allowed solubilizing A-5021 at the concentration of 5 mg/mL (0.5% w/v) at close to neutral pH (the pH ranged from 6.98-7.1 1). These vehicles are (% w/v in water): • (i) 80% w/v propylene glycol; • (ii) 50% w/v Kleptose® HPB; • (iii) 60% w/v propylene glycol+15% w/v glycerol; • (iv) 60% w/v propylene glycol+10% w/v glycerol.

herpes virus = conditions: Neyts et al. 2001; Iwayama et al. 1998; cited from earlier work
[3] = test system: herpes simplex virus type 1 (HSV-1); conditions: in vivo, reported; cited from earlier work
[4] = test system: herpes simplex virus type 2 (HSV-2); conditions: in vivo, reported; cited from earlier work
varicella-zoster (VZV) = conditions: in vivo, reported; cited from earlier work
[5] = background; more than 1 mg/mL typically requires pH below 4 or above 10; cited from earlier work

solubility at 24 h ([1]; 80% (v/v) propylene glycol / 20% (v/v) buffer, pH 1, aqueous with cosolvent or surfactant or cyclodextrin, 80% (v/v) propylene glycol in 20% (v/v) buffer (pH 1 1.3), highest solubility): 8640 µg/mL | solubility at 24 h ([1]; 80% v/v propylene glycol / 20% v/v phosphate buffer, pH 7.4, aqueous with cosolvent or surfactant or cyclodextrin, 80% v/v propylene glycol and 20% v/v phosphate buffer at pH 7.4): 8180 µg/mL | solubility at 24 h ([1]; pH 2.2, aqueous with cosolvent or surfactant or cyclodextrin, 60% v/v HCl buffer and 40% w/v HPBC, pH 2.2): 6760 µg/mL | solubility at 24 h ([1]; pH 2.8, aqueous with cosolvent or surfactant or cyclodextrin, acidic pH 2.8 instead of pH 11.3, room temperature): 8500 µg/mL | solubility at 24 h ([1]; pH 7, aqueous with cosolvent or surfactant or cyclodextrin, 5.7-33.34% v/v propylene glycol, 33.33-40% w/v/v HPBC, 33.34-54.3% v/v buffer, pH 7.0-7.4): 3280 to 4050 µg/mL | solubility at 24 h ([1]; pH 7, aqueous with cosolvent or surfactant or cyclodextrin, 60% v/v HCl buffer and 40% w/v HPBC, pH 7): 4910 µg/mL | effect on solubility of adding an organic co-solvent ([1]; pH 12 buffered solutions): does not improve the solubility | solubility ([2]; vehicle (i) 80% w/v propylene glycol in water): 5000 µg/mL | solubility ([2]; vehicle (ii) 50% w/v Kleptose HPB in water): 5000 µg/mL | solubility ([2]; vehicle (iii) 60% w/v propylene glycol+15% w/v glycerol in water): 5000 µg/mL | solubility ([2]; vehicle (iv) 60% w/v propylene glycol+10% w/v glycerol in water): 5000 µg/mL
Structure (SMILES): Nc1nc2c(ncn2C[C@]2(CO)C[C@H]2CO)c(=O)[nH]1 [Formulation A-5021, 2-amino-9-[[(1S,2R)-1,2-bis(hydroxymethyl)cyclopropyl]methyl]-1,9-dihydro-6H-Purin-6-one]
inhibition of herpes virus replication (herpes virus): potent inhibitor | antiviral activity [3]: potent and selective antiviral agent | antiviral activity [4]: potent and selective antiviral agent | antiviral activity (varicella-zoster (VZV)): potent and selective antiviral agent | solubility [5]: poor solubility
